These results are taken from ChEMBL document CHEMBL1132549, “Design and structure-activity relationship of a new class of potent VEGF receptor tyrosine kinase inhibitors” (J Med Chem, 1999).

Calls of active or inactive are those of the source. The rule behind the calls is not given here. A value given as a limit tells only on which side of the number the result lay.

In data set [1] the target is Fibroblast growth factor receptor 1 (Homo sapiens, UniProt P11362).
Data set [2] concerns the target Vascular endothelial growth factor receptor 1 (Homo sapiens, UniProt P17948).
Data set [3] has as its target Vascular endothelial growth factor receptor 2 (Homo sapiens, UniProt P35968).
Data set [4] can be described thus: Mouse plasma levels are obtained 24 hr after oral administration of 100 mg/kg of compound. The data set is classed as ADME, organism-based. Also noted: dose 100 mg/kg, route oral. The following applies: read-out: Plasma level.
A short description of data set [5]: Mouse plasma levels are obtained 6 hr after oral administration of 100 mg/kg of compound. Also noted: dose 100 mg/kg, route oral. It is filed as ADME, organism-based. Conditions: read-out: Plasma level.
The subject of data set [6] is HUVEC. Description: Inhibition of unstimulated HUVEC cell proliferation. It is filed as functional, cell-based. Conditions: Homo sapiens.
Data set [7] has as its target Fibroblast growth factor receptor (Homo sapiens, UniProt P22607+P11362+P22455+P21802). Conditions: huvec.
The target of data set [8] is Vascular endothelial growth factor receptor (Homo sapiens, UniProt P17948+P35916+P35968). Conditions: huvec.
The subject of data set [9] is Rattus norvegicus. As to the kind of experiment: Percent inhibition of VEGF-mediated estradiol benzoate-induced rat uterus weight gain at 100 mg/kg oral dose. The data set is classed as functional.
The test system of data set [10] is Rattus norvegicus. Description: Percent inhibition of VEGF-mediated estradiol benzoate-induced rat uterus weight gain at 60 mg/kg oral dose. The data set is classed as functional.
Data set [11] relates to Rattus norvegicus. As to the kind of experiment: Percent inhibition of VEGF-mediated estradiol benzoate-induced rat uterus weight gain at 100 mg/kg oral dose; NA is Not Active. The data set is classed as functional, organism-based. Also on record: dose 100 mg/kg.

Chain of Vascular endothelial growth factor receptor 1 (P17948 whole entry): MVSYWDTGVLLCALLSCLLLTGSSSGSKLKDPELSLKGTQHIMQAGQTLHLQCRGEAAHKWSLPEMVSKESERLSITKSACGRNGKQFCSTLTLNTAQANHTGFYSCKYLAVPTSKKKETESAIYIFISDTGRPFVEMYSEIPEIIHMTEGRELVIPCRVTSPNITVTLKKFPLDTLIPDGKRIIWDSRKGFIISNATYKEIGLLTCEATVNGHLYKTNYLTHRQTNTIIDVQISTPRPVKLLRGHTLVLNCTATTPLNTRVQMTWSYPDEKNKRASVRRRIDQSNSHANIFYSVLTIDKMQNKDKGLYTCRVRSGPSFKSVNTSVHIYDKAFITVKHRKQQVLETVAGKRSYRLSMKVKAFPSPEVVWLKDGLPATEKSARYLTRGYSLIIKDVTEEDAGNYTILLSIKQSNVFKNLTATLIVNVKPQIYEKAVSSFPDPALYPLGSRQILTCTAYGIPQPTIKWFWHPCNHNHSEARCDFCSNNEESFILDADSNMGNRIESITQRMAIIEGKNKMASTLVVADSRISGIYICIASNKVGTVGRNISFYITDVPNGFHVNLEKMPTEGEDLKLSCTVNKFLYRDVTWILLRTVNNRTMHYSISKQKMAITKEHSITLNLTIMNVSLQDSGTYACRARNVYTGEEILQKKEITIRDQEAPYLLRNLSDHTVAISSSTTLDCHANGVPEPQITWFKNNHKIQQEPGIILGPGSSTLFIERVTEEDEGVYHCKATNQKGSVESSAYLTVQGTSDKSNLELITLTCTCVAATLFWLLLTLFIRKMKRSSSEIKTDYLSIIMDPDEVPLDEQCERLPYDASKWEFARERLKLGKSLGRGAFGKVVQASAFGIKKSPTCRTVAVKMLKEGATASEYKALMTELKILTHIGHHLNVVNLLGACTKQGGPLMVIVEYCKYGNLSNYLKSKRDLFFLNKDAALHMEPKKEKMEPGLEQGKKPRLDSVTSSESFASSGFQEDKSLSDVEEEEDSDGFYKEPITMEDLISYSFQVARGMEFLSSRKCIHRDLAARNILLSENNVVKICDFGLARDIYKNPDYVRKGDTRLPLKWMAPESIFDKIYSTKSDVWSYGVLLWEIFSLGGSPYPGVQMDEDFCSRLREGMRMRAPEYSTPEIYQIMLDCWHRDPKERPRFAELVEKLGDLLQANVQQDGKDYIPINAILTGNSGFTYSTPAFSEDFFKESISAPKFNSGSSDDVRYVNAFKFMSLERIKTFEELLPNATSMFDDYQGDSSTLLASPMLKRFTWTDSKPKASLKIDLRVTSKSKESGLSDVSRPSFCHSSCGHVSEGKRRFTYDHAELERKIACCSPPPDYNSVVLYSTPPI
Chain of Vascular endothelial growth factor receptor 2 (P35968 whole entry): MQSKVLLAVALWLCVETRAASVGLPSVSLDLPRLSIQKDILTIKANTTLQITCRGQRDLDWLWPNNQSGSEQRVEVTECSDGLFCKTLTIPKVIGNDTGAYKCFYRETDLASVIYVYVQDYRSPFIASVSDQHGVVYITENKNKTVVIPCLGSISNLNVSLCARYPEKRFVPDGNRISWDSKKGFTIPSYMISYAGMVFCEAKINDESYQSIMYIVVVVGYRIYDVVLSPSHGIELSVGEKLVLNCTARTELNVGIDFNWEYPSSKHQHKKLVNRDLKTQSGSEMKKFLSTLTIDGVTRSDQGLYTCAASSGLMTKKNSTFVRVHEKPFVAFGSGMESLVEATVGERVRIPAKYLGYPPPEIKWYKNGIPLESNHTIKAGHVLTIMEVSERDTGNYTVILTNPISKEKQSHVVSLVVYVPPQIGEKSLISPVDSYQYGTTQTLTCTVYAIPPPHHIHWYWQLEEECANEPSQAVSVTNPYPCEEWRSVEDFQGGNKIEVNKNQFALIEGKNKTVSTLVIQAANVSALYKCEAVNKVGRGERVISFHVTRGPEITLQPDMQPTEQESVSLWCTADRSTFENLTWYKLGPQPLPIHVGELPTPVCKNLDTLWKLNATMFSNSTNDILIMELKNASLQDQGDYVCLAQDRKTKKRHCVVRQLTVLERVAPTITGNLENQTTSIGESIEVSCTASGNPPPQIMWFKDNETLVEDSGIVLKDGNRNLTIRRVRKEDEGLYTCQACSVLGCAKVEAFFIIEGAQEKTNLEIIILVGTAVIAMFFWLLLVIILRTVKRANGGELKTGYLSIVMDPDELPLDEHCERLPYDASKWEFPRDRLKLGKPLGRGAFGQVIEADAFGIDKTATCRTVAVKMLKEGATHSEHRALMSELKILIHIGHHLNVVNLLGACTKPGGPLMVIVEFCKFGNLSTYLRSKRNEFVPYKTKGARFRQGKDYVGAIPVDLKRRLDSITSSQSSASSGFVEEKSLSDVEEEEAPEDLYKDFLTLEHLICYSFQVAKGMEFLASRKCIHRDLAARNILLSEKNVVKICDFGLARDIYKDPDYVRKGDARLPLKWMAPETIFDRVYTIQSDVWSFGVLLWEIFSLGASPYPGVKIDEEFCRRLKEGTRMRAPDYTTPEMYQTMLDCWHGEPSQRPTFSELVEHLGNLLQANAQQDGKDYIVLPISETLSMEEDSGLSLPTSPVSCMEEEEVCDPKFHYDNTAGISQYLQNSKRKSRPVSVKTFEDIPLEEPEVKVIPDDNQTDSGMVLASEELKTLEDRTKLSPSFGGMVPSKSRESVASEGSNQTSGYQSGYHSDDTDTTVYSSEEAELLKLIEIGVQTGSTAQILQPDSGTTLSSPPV
Chain of Fibroblast growth factor receptor 1 (P11362 whole entry): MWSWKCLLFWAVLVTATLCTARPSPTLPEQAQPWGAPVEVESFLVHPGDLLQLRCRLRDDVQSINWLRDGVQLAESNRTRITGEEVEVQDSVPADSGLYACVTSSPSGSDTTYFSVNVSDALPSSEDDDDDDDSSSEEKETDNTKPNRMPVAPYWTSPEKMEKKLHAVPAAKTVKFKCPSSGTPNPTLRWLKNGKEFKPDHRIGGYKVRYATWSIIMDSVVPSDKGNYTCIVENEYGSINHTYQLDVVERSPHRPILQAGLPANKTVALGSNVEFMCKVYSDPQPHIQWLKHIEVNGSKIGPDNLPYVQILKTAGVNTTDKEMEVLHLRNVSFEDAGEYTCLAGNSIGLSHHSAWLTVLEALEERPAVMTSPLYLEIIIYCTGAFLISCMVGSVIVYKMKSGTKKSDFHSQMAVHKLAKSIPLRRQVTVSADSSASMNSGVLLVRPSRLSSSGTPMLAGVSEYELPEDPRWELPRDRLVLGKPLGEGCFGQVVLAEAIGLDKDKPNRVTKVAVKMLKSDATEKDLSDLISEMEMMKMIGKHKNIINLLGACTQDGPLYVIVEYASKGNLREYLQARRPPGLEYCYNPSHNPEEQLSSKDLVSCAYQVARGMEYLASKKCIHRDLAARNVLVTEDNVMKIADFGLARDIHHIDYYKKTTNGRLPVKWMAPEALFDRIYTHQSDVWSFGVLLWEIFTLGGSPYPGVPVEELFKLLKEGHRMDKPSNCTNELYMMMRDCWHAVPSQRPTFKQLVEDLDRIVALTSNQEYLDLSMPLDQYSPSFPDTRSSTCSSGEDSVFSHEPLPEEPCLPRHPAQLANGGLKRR

Regarding `COc1cc2ncnc(Nc3cccc(O)c3)c2cc1OC`, the results for the IC50 in data set [1] and in [2] were 11 µM and 0.2 µM, respectively.

Turning to `COCC(=O)Nc1cc2ncnc(Nc3cc(O)c(C)cc3F)c2cc1OC`, the IC50 – broadly, the concentration that inhibits the measured activity by half – in data set [1] is > 100 µM; in data set [2], 0.3 µM; in data set [3], 0.3 µM.

As to `COc1cc2ncnc(Nc3ccc(I)cc3F)c2cc1OC`, the IC50 in data set [2] was found to be 0.8 µM.

On to `COc1cc2c(Nc3ccc(Cl)cc3F)ncnc2cc1OCCn1ccnn1`, for which the concentration at 24 h in data set [4] was found to be 10 µM. The concentration at 6 h in [5] was 49 µM. In data set [6], this compound returned an IC50 of 5 µM.

In the case of `COc1cc2c(Nc3ccc(Cl)cc3F)ncnc2cc1OCCN1CCOCC1`, the IC50 in data set [1] came out at 19 µM; in data set [2], 1.1 µM; in [3], 0.04 µM.

As for `COc1cc2ncnc(Nc3ccccc3F)c2cc1OC`, the results for the IC50 in data set [1], in [2] and in data set [3] were > 100 µM, 26 µM and 2.7 µM, respectively.

Take `COCCOc1cc2ncnc(Nc3cc(O)c(Cl)cc3F)c2cc1OC`: the concentration at 24 h in [4] is < 0.1 µM. In data set [5], the concentration at 6 h is < 0.1 µM. Also, the IC50 in data set [6] is 5 µM; in data set [1] it was 7.4 µM; in [2], < 0.002 µM; in data set [3], < 0.002 µM; in data set [7], 0.8 µM; in data set [8] it was 0.004 µM.

As for `COCCOc1cc2ncnc(Nc3ccc(Cl)cc3F)c2cc1OC`, the concentration at 24 h in data set [4] was < 0.1 µM. Further, in data set [5], the concentration at 6 h was 12 µM. In [9], the inhibition in vivo – broadly, the percentage by which the read-out fell short of the control – at 100 mg/kg was found to be 31%. The half-maximal inhibitory concentration (IC50) stood at 27 µM in data set [1], 0.4 µM in data set [2] and 0.007 µM in data set [3].

For `COc1cc2c(Nc3ccc(Cl)cc3F)ncnc2cc1OCCCN1CCOCC1`, in data set [4], the concentration at 24 h came out at 0.8 µM. In addition, the concentration at 6 h in data set [5] is 4 µM. The same compound registered an inhibition in vivo at 100 mg/kg in data set [9] of 59%. For the same compound, the IC50 in [1] came out at 6.7 µM; in data set [3], 0.009 µM.

Consider `COCCOc1cc2nncc(Nc3cc(O)c(Cl)cc3F)c2cc1OC`, for which the IC50 in data set [2] came out at 0.05 µM.

On to `COCCOc1cc2ncnc(Nc3ccc(Cl)cc3F)c2cc1OCCOC`, for which the results for the IC50 in [1], in [2] and in [3] were > 100 µM, 0.9 µM and 0.06 µM, respectively.

Turning to `COc1cc2c(Nc3ccc(Cl)cc3F)ncnc2cc1OCCN(C)c1ccncc1`, the IC50 in data set [1] was 1.6 µM; in [2] it was 0.1 µM; in [3] it was 0.006 µM.

`COc1cc2c(Nc3ccc(Cl)cc3F)ncnc2cc1OCCCCN1CCOCC1`: the values for the IC50 in [1], in data set [2] and in data set [3] were 1.5 µM, 0.3 µM and 0.04 µM, respectively.

For the compound `COc1cc2c(Nc3ccc(C#N)cc3F)ncnc2cc1OCCn1ccnn1`, the IC50 is > 10 µM in [6]; 45 µM in data set [1]; 8.1 µM in data set [2]; 0.3 µM in data set [3]; 3 µM in data set [7]; 0.6 µM in data set [8].

In the case of `COc1cc2ncnc(Nc3cc(O)c(C)cc3F)c2cc1OC`, the concentration at 24 h in data set [4] is < 0.2 µM. The concentration at 6 h in data set [5] is < 0.2 µM. In [10], this compound had an inhibition in vivo at 60 mg/kg of 80%. For the same compound, the IC50 in data set [1] was found to be 2.5 µM; in data set [2] it was 0.03 µM; in data set [3] it was 0.003 µM.

Take `COCCOc1cc2nccc(Nc3ccc(Cl)cc3F)c2cc1OC`: in data set [5], the concentration at 6 h stood at 3 µM. Moreover, the IC50 came to 9.3 µM in [1], 0.3 µM in data set [2] and 0.01 µM in [3].

Regarding `COc1cc2c(Nc3ccc(Cl)cc3F)ncnc2cc1OCc1ccncc1`, the IC50 was > 33 µM in data set [1], 1.2 µM in data set [2] and 0.06 µM in data set [3].

As for `COc1cc2c(Nc3ccc(Cl)cc3F)ncnc2cc1OCCn1ccnc1`, the concentration at 24 h in data set [4] was < 0.1 µM. The concentration at 6 h in data set [5] stood at 11 µM.

Consider `COc1cc2ncnc(Nc3ccc(Cl)cc3)c2cc1OC`, for which the half-inhibitory concentration (IC50) in data set [1] was > 100 µM; in data set [2] it was 11 µM; in [3], 0.8 µM.

With `COc1cc2c(Nc3ccc(Cl)cc3F)ncnc2cc1OC1CCN(C)CC1`, the results for the 50% inhibitory concentration (IC50) in data set [1], in data set [2] and in data set [3] were 40 µM, 15 µM and 1.5 µM, respectively.

Regarding `COc1cc2c(Nc3ccc(Br)cc3F)ncnc2cc1OCCn1ccnn1` [ZD-4190 FREE BASE], the IC50 was > 10 µM in data set [6]; > 100 µM in [1]; 0.7 µM in data set [2]; 0.03 µM in data set [3]; 1.5 µM in [7].

Consider `COCCOc1cc2nncc(Nc3ccc(Cl)cc3F)c2cc1OC`, for which the half-maximal inhibitory concentration (IC50) in [2] worked out at 63 µM.

For `COc1cc2c(Nc3ccc(Cl)cc3F)ncnc2cc1OCCOCCN1CCOCC1`, the concentration at 24 h in data set [4] is < 0.1 µM. The concentration at 6 h in data set [5] is 11 µM. Further, the IC50 turned out to be 20 µM in data set [1], 0.5 µM in data set [2] and 0.06 µM in data set [3].

The compound `COc1cc2ncnc(Nc3ccc(Cl)cc3F)c2cc1OC` displayed an inhibition in vivo at 100 mg/kg in data set [9] of 34%. Besides, the IC50 in data set [1] amounted to 7 µM; in [3], 0.1 µM.

Take `COc1cc2ncnc(Nc3ccc(F)cc3F)c2cc1OC`: the IC50 is 58 µM in data set [1], 22 µM in data set [2] and 2.9 µM in data set [3].

With `COc1cc2ncnc(Nc3ccc(I)cc3Cl)c2cc1OC`, the IC50 in [2] was > 33 µM.

As to `COCCOc1ccc2c(Nc3ccc(Cl)cc3F)ncnc2c1`, the IC50 in data set [1] worked out at 16 µM; in [2], 1.5 µM.

Turning to `COc1cc2c(Nc3c(F)cc(Br)cc3F)ncnc2cc1OCCn1ccnn1`, the half-maximal inhibitory concentration (IC50) turned out to be 1 µM in data set [6]; 0.8 µM in data set [2]; 0.04 µM in data set [3]; 0.1 µM in [7]; 0.02 µM in [8].

Consider `COCCOc1cc2ncnc(Nc3cccc(O)c3)c2cc1OC`, for which the inhibition entry in data set [11] is “inactive”. Besides, the IC50 in data set [1] is 7 µM; in data set [2], 0.03 µM; in data set [3], < 0.005 µM.

Take `COCC(=O)Nc1cc2ncnc(Nc3ccc(Cl)cc3F)c2cc1OC`: the figures for the IC50 in data set [1], in data set [2] and in [3] were > 50 µM, > 100 µM and > 100 µM, respectively.

Regarding `COCCOc1cc2nccc(Nc3cc(O)c(Cl)cc3F)c2cc1OC`, the half-maximal inhibitory concentration (IC50) is 1.4 µM in data set [1], 0.003 µM in data set [2] and < 0.002 µM in [3].

In the case of `COc1cc2ncnc(Nc3ccc(F)c(Cl)c3)c2cc1OC`, the results for the IC50 in data set [1], in [2] and in data set [3] were > 100 µM, > 100 µM and 0.8 µM, respectively.
